This data set can be described thus: photoluminescence quantum yield (fraction); solvent given as SMILES.

Molecule `CC(C)(C)c1ccc2c(c1)c1cc(C(C)(C)C)ccc1n2-c1nc2ccccc2nc1-n1c2ccc(C(C)(C)C)cc2c2cc(C(C)(C)C)ccc21` returned a photoluminescence quantum yield (in Cc1ccccc1) of 0.32.
Where the note is “in ClC(Cl)Cl”, `Cc1ccc(-n2c3ccccc3c3cc(-c4ccc5[n+](c4)[B-](F)(F)n4c-5nc5c6ccccc6c6ccccc6c54)ccc32)cc1` yielded a photoluminescence quantum yield of 0.957.
With `CC(C)(C)NC(=O)c1ccc(-c2ccc(N3c4ccccc4Oc4ccccc43)cc2)c2ccc3c4ccc(F)cc4c4cc(F)ccc4c3c12`, for the setting “in ClCCl”, the photoluminescence quantum yield was determined as 0.03.
Take `CCN(CC)c1ccc2c(c1)oc(=O)c1c(=O)oc3cc(Br)ccc3c12`: the photoluminescence quantum yield reads like this: (in CS(C)=O) 0.25; (in ClCCl) 0.9.
Consider `c1ccc(Cc2c3ccc(=[N+]4CCCCC4)cc-3oc3cc(N4CCCCC4)ccc23)cc1`, for which the photoluminescence quantum yield (in ClCCl) is 0.87.
As to `CC(C)(C)c1ccc2c(c1)c1cc(C(C)(C)C)ccc1n2-c1ccc(N(c2ccc(-c3ccc(-c4ccc(-c5ccc(-c6ccc(N(c7ccc(-n8c9ccc(C(C)(C)C)cc9c9cc(C(C)(C)C)ccc98)cc7)c7ccc(-n8c9ccc(C(C)(C)C)cc9c9cc(C(C)(C)C)ccc98)cc7)cc6)cc5)c5nsnc45)cc3)cc2)c2ccc(-n3c4ccc(C(C)(C)C)cc4c4cc(C(C)(C)C)ccc43)cc2)cc1`, the photoluminescence quantum yield (in ClCCl) came to 0.03.
Where the note is “in CCCO”, `CCOC(=O)c1ccc2c(c1)sc1c3ccc(C(=O)OCC)cc3sc21` displayed a photoluminescence quantum yield of 0.083.
In turn, `C#CCNC1=C2C(C)=CC(C)=[N+]2[B-](F)(F)n2c(C)cc(C)c21` showed a photoluminescence quantum yield (in C1CCCCC1) of 0.23; a photoluminescence quantum yield (in CC(C)=O) of 0.063; a photoluminescence quantum yield (in CCOC(C)=O) of 0.084; a photoluminescence quantum yield (in CO) of 0.051; a photoluminescence quantum yield (in OCC(F)(F)F) of 0.074.
With `CCCCN(CCCC)c1ccc(C#Cc2cc(C#Cc3cc(C(F)(F)F)cc(C(F)(F)F)c3)c(C#Cc3ccc(N(CCCC)CCCC)cc3)cc2C#Cc2cc(C(F)(F)F)cc(C(F)(F)F)c2)cc1`, for the setting “in ClCCl”, the photoluminescence quantum yield is 0.25.
Regarding `C(/C=C/c1ccc(-n2c3ccccc3c3ccccc32)cc1)=C\c1ccncc1`, the photoluminescence quantum yield by setting is: (in C1COCCO1) 0.55; (in CC#N) 0.32; (in CCCCCCC) 0.78; (in CO) 0.02.
In turn, `COc1nc(Nc2ccc3ccc4cccc5ccc2c3c45)nc(OC)n1` yielded a photoluminescence quantum yield (in CC#N) of 0.24, a photoluminescence quantum yield (in CCCCOCCCC) of 0.57 and a photoluminescence quantum yield (in CO) of 0.02.
In the case of `NS(=O)(=O)c1ccc(N2N=C(c3ccc(O)cc3)CC2c2ccccc2)cc1` (stereo not given), the photoluminescence quantum yield (in C1CCOC1) stood at 0.65; the photoluminescence quantum yield (in C1COCCO1) was determined as 0.63; the photoluminescence quantum yield (in CC#N) was found to be 0.6; the photoluminescence quantum yield (in CC(C)O) turned out to be 0.44; the photoluminescence quantum yield (in CCO) came out at 0.36; the photoluminescence quantum yield (in CCOC(C)=O) was 0.66. Also, the photoluminescence quantum yield reads like this: (in CN(C)C=O) 0.68; (in CO) 0.28; (in CS(C)=O) 0.7; (in O) 0.41.
`Cc1cc(-c2cccc3ccccc23)cc(C)[o+]1` gave a photoluminescence quantum yield (in ClCCl) of 0.22.
In turn, `COc1ccc(C#Cc2ccc(C#N)cc2)cc1` displayed a photoluminescence quantum yield (in C1COCCO1) of 0.1; a photoluminescence quantum yield (in CC#N) of 0.09; a photoluminescence quantum yield (in CCCCCC) of 0.15; a photoluminescence quantum yield (in CCCCCCC) of 0.17; a photoluminescence quantum yield (in CCCO) of 0.13; a photoluminescence quantum yield (in CCOC(C)=O) of 0.08. Moreover, the photoluminescence quantum yield by setting is: (in CS(C)=O) 0.15; (in ClC(Cl)Cl) 0.13; (in ClCCl) 0.12.
As to `O=C1c2ccc(-c3ccc(N(c4ccc(-c5ccccc5)cc4)c4ccc(-c5ccccc5)cc4)cc3)cc2C(=O)c2ccc(-c3ccc(N(c4ccc(-c5ccccc5)cc4)c4ccc(-c5ccccc5)cc4)cc3)cc21`, the photoluminescence quantum yield is, setting by setting: (in Cc1ccccc1) 0.62; (in c1ccc2c(c1)c1ccccc1n2-c1ccc(-c2ccc(-n3c4ccccc4c4ccccc43)cc2)cc1) 0.76.
Turning to `N#Cc1ccc(-n2cccc2)cc1`, the photoluminescence quantum yield runs as follows: (in C1CCOC1) 0.024; (in CC#N) 0.024; (in CCCCCC) 0.077; (in CCOCC) 0.023; (in ClCCl) 0.022.
As for `Cc1ccc2ccc3cccc4ccc1c2c34`, the photoluminescence quantum yield (in CCCCCC) stood at 0.34, the photoluminescence quantum yield (in CO) turned out to be 0.28 and the photoluminescence quantum yield (in ClCCl) was found to be 0.45.
The molecule `N#Cc1ccc(N/N=C/c2ccc3ccccc3c2O)cc1` displayed a photoluminescence quantum yield (in CO) of 0.13.
For the molecule `CC1=C2C=CC=[N+]2[B-](F)(F)n2cccc21`, the photoluminescence quantum yield reads like this: (in CCCCCC) 0.96; (in CO) 1; (in ClCCl) 0.88.
`CCCCCCCCCCOc1cc2cc(C#Cc3ccc(/C=C(\C#N)C(=O)O)cc3)c(=O)oc2cc1OCCCCCCCCCC`: the photoluminescence quantum yield (in CC#N) came out at 0.05.
In turn, `C[Si]1(c2ccccc2)C(c2ccc(-n3c4ccccc4c4ccccc43)cc2)=C(c2ccccc2)C(c2ccccc2)=C1c1ccc(-n2c3ccccc3c3ccccc32)cc1` came in with a photoluminescence quantum yield (in C1CCOC1) of 0.032.
For `CN(C)c1ccc2nc(-c3ccc(C=C(C#N)C#N)cc3)sc2c1`, the photoluminescence quantum yield worked out at 0.85 (in C1CCCCC1), 0 (in CC#N), 0 (in CO) and 0.64 (in ClC(Cl)Cl).
The molecule `CCCCn1c2ccc(C#Cc3cccs3)cc2c2c1c1c3ccc(C#Cc4cccs4)cc3n(CCCC)c1c1c3ccc(C#Cc4cccs4)cc3n(CCCC)c21` had a photoluminescence quantum yield (in C1CCOC1) of 0.39.
In turn, `c1ccc2c(c1)Cc1ccccc1N2c1c2ccccc2cc2ccccc12` came in with a photoluminescence quantum yield (in Cc1ccccc1) of 0.06.
Consider `Oc1ccccc1-c1nc2ccccc2s1`, for which the photoluminescence quantum yield was 0.0155 (in CCO), 0.0368 (in ClCCl) and 0.101 (in O).
For `C/C(=C\c1ccc(Cl)cc1)c1nc2ccccc2s1`, the photoluminescence quantum yield runs as follows: (in C1CCCCC1) 0.03; (in CO) 0.005.
`c1ccc(-c2nc(-c3ccccn3)[se]c2N(c2ccccc2)c2ccccc2)cc1`: the photoluminescence quantum yield (in ClC(Cl)Cl) amounted to 0.113.
As for `CCC1(CC)c2cc(Br)ccc2-c2c1c1c(c3c2C(CC)(CC)c2cc(-c4cccs4)ccc2-3)C(CC)(CC)c2cc(Br)ccc2-1`, the photoluminescence quantum yield (in C1CCOC1) stood at 0.32.
The molecule `COc1ccc(-c2cc(-c3ccc(C(F)(F)F)cc3)nn2C)cc1` came in with a photoluminescence quantum yield (in ClCCl) of 0.2.
For `CCN(CC)c1ccc(-c2nc3cc(C(NC(=O)OC(C)(C)C)C(=O)OC)ccc3o2)c(O)c1` (stereo not given), the photoluminescence quantum yield is, setting by setting: (in CC1CCCCC1) 0.11; (in CC#N) 0.43; (in CO) 0.08.
For the molecule `CCN(CC)c1ccc2c(c1)C(C)(C)C(=O)C=C2`, for the setting “in O”, the photoluminescence quantum yield is 0.09.
`CCN(CC)c1ccc(/C=C/c2ccc(-c3ccc(/C=C/c4ccc(N(CC)CC)cc4)s3)s2)cc1`: the photoluminescence quantum yield runs as follows: (in C1CCOC1) 0.14; (in CC#N) 0.13; (in CC(C)=O) 0.13; (in CN(C)C=O) 0.12; (in Cc1ccccc1) 0.14.
Take `COc1c(-c2ccc(N(C)C)cc2)oc2ccccc2c1=O`: the photoluminescence quantum yield came out at 0.048 (in C1CCCCC1), 0.88 (in C1CCOC1), 0.69 (in CC#N) and 0.021 (in CO).
As to `CCCCCCCCCCCCNc1cccc2[n+]1[B-](F)(F)n1c(c3cccc4cccc1c43)=N2`, the photoluminescence quantum yield runs as follows: (in C1CCOC1) 0.18; (in CC#N) 0.12; (in CCCCCC) 0.58; (in Cc1ccccc1) 0.36; (in ClCCl) 0.25.
The molecule `COc1ccc2cc(/C=C/c3ccc([N+](=O)[O-])cc3)c(=O)oc2c1` gave a photoluminescence quantum yield (in CC#N) of 0.24.
For `CN(C)c1ccc2c(c1)-c1ccccc1C2=O`, the photoluminescence quantum yield was 0.14 (in C1CCCCC1), 0.083 (in CC#N), 0.0081 (in CCO) and 0.23 (in c1ccccc1).
Turning to `c1ccc([B-]23Oc4ccccc4-c4c5[n+]6c(c([n+]42)-c2ccccc2O3)-c2ccccc2O[B-]6(c2ccccc2)Oc2ccccc2-5)cc1`, the photoluminescence quantum yield (in ClCCl) stood at 0.2.

These data come from the Deep4Chem optical property database.
